Data: publication PMC12655733, “Design, Synthesis and Evaluation of the First 2-Alkynyl(aza)indole ^18F Probe Targeting α-Synuclein Aggregates” (Pharmaceuticals, 2025)
Read-outs that look alike come from different tables or passages of the source.

Legend:
[1] = molecular target: T1, Aβ1-42 fibrils (Homo sapiens, UniProt P05067); test: Inhibition of thioflavin T binding to Aβ1-42 fibrils (fluorescence competition), Ki determination; settings: calculated from IC50, competition with ThT 500 nM, fibrils 500 nM, mean ± SD of 3 experiments; read-out: Ki Aβ
T1 construct: Wild-type α-syn and Aβ1-42 were expressed; made in house; host or cells: Escherichia coli BL21(DE3)
Procedure: (§1) Wild-type α-syn and Aβ1-42 were expressed in the Escherichia coli strain BL21(DE3) (Stratagene, La Jolla, CA, USA) and purified as described. […] For the Aβ1-42 peptide, the concentration was determined by a fluorometric method using the reactive compound fluorescamine (Sigma, San Jose, CA, USA) that reacts with primary amino groups to form a fluorescent product. The human Tau protein (isoform h2N4RTau) was expressed in the pET11d vector in the Escherichia coli strain BL21(DE3) (Stratagene, La Jolla, CA, USA) and purified as described.
(§2) For assembly into fibrils, α-syn was incubated in 50 mM Tris-HCl, pH 7.5, 150 mM KCl at 37 °C under continuous shaking for 4 days. Lyophilized Aβ1-42 was dissolved in 1,1,1,3,3,3-hexafluoro-2-propanol (HFIP) at a concentration of 0.2 mg/mL and incubated for 24 h at 37 °C to achieve complete solubilization. HFIP was evaporated under a nitrogen stream to obtain a dry film. To start assembly into fibrils, the dry peptide was resuspended in PBS pH 7.4, 10% (v/v) DMSO and incubated at 37 °C without shaking for 3 days. The Tau protein was assembled in fibrils in a PBS buffer containing 1 mM of DTT in the presence of 1/12 heparin (v/v) at 37 °C under shaking. […] Protein fibrils were systematically examined by transmission electron microscopy (TEM) in a Jeol 1400 transmission electron microscope following adsorption onto carbon-coated 200 mesh grids and negative staining with 1% uranyl acetate. The images were recorded with a Gatan Orius CCD camera (Gatan, Pleasanton, CA, USA). Finally, the percentage of α-syn or Aβ1-42 aggregated into fibrils was assessed by pelleting fibrils at 40,000× g for 20 min and by determining the concentration of soluble protein/peptide remaining in the supernatant.
(§3) The samples were incubated for 1 h at room temperature to achieve complete equilibration.

[2] = molecular target: T2, α-syn fibrils (Homo sapiens, UniProt P37840); test: Inhibition of thioflavin T binding to α-syn fibrils (fluorescence competition), Ki determination
T2 construct: made in house; host or cells: Escherichia coli BL21(DE3)
Procedure: as §1, §2, §3

[3] = molecular target: T3, Tau fibrils (isoform h2N4RTau) (Homo sapiens, UniProt P10636); test: Inhibition of thioflavin T binding to Tau fibrils (fluorescence competition), Ki determination; settings: calculated from IC50, competition with ThT 500 nM, fibrils 200 nM, mean ± SD of 3 experiments
T3 construct: made in house; host or cells: Escherichia coli BL21(DE3), pET11d vector
Procedure: as §1, §2, §3

[4] = molecular target: T1, Aβ1-42 fibrils; test: Direct fluorescence titration on Aβ1-42 fibrils: Kd and Bmax; type: binding; settings: direct assay on fibrils, mean ± SD of 3 experiments; read-out: Kd Aβ
Text: (§4) In view of the interesting properties of compounds 33–39, we decided to switch to azaindole structures and to study the impact of the position of the nitrogen atom in the 6-membered ring on binding to fibrils. At this step we measured, in addition to the Ki values, the direct binding of each compound to fibrils through the fluorescence in the fraction bound to fibrils, which allowed us to determine the affinity values (Kd, Table 1). […] We therefore prepared a fluorinated derivative of compound 43, i.e., 45.
(§5) Fresh solutions of each tested compound (2.5 mM in DMSO) were diluted in PBS pH 7.4 at concentrations ranging from 0.5 nM to 5 µM in the presence or absence of α-syn, Aβ1-42, or Tau fibrils (200 nM, 500 nM, or 200 nM, respectively) in a final volume of 2 mL. After 1 h incubation at room temperature, the binding of each compound to α-syn, Aβ1-42, or Tau fibrils was assessed by fluorescence measurements using the appropriate excitation/emission wavelengths (i.e., those yielding the highest fluorescence ratio between fibril-bound and free compound). For any given concentration of compound added to the fibrils, the concentrations of compound bound to the fibrils and free in solution were determined on the basis of the measured fluorescence. Since at each point of the titration: Fm = FB × B + FF × (T − B) where Fm is the measured fluorescence of the compound in the presence of fibrils at a given compound concentration T, FB is the specific molar fluorescence of the bound compound, FF is the specific molar fluorescence of the free compound, and B is the concentration of compound bound to the fibrils at any point of the titration. FF was determined by measuring the fluorescence of known compound concentrations in the absence of fibrils. FB was determined by measuring the maximum fluorescence of known compound concentrations upon saturation with α-syn, Aβ1-42, or Tau fibrils.
(§6) Therefore, at each point of the titration, the concentration of bound compound B could be determined and was B = (Fm − FF × T)/FB − FF. The B values thus determined versus the respective concentrations of free compound were analyzed by fitting to the Michaelis-Menten equation.

[5] = molecular target: T2, α-syn fibrils; test: Direct fluorescence titration on α-syn fibrils: Kd and Bmax; type: binding; settings: direct assay on fibrils, mean ± SD of 3 experiments
Text: as §4, §5, §6

[6] = molecular target: T3, Tau fibrils (isoform h2N4RTau); test: Direct fluorescence titration on Tau fibrils: Kd and Bmax; type: binding; settings: direct assay on fibrils, mean ± SD of 3 experiments
Text: as §4, §5, §6

[7] = molecular target: T2, α-syn fibrils; settings: cited from earlier work
[8] = molecular target: Aβ fibrils; settings: cited from earlier work
[9] = calculated from IC50, competition with ThT 500 nM, fibrils 200 nM, mean ± SD of 3 experiments

T1 sequence (P05067 672-713): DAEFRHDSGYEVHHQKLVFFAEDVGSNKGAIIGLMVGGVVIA
T3 sequence (P10636 1-441 isoform P10636-8): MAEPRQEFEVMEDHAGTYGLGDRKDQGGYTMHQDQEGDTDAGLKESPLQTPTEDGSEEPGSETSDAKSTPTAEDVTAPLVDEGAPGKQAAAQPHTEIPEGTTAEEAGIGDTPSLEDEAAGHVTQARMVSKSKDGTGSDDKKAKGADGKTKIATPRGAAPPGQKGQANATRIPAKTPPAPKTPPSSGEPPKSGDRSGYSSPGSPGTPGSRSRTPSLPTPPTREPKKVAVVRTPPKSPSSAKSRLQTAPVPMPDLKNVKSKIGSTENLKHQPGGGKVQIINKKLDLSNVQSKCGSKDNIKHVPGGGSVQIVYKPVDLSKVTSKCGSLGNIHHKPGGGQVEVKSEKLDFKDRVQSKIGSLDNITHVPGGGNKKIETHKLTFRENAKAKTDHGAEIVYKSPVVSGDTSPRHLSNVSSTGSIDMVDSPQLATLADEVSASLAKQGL

| Compound | Ki [1] | Ki [2] | Ki [3] | other results |
| --- | --- | --- | --- | --- |
| C(#Cc1cc2ccccc2[nH]1)c1ccccc1 [Compound 31] | 68.9 ± 30 nM | > 100 nM | 19.6 ± 2 nM |  |
| Cc1ccc(C#Cc2cc3ccccc3[nH]2)cc1 [Compound 32] | 37.9 ± 13 nM | > 100 nM | 13.1 ± 2 nM |  |
| CCc1ccc(C#Cc2cc3ccccc3[nH]2)cc1 [Compound 33] | 3.3 ± 1 nM | 35.9 ± 5 nM | 32.9 ± 8 nM |  |
| COc1ccc(C#Cc2cc3ccccc3[nH]2)cc1 [Compound 34] | 68.9 ± 14 nM | 96.7 ± 14 nM | 33.1 ± 7 nM |  |
| Nc1ccc(C#Cc2cc3ccccc3[nH]2)cc1 [Compound 35] | 26.2 ± 11 nM | 40.4 ± 6 nM | 123 ± 28 nM |  |
| Nc1cccc(C#Cc2cc3ccccc3[nH]2)c1 [Compound 36] | 15.3 ± 7 nM | > 100 nM | 7.2 ± 1 nM |  |
| CNc1ccc(C#Cc2cc3ccccc3[nH]2)cc1 [Compound 37] | 6.6 ± 2 nM | 47.8 ± 9 nM | 17.2 ± 3 nM |  |
| CN(C)c1ccc(C#Cc2cc3ccccc3[nH]2)cc1 [Compound 38] | 64.4 ± 40 nM | 36 ± 7 nM | 27.6 ± 3 nM |  |
| COc1ccc2[nH]c(C#Cc3ccc(N(C)C)cc3)cc2c1 [Compound 39] |  | 21.7 ± 6 nM | 12.7 ± 1 nM |  |
| CN(C)c1ccc(C#Cc2cc3cc(OCCF)ccc3[nH]2)cc1 [Compound 40] | 10.1 ± 5 nM | > 100 nM | 15.8 ± 3 nM |  |
| CN(C)c1ccc(C#Cc2cc3ncccc3[nH]2)cc1 [Compound 41] | 21.3 ± 7 nM |  | 12 ± 1 nM | Ki [2, 9]: 26 ± 16 nM; Kd [4]: 2.9 ± 2 nM; Kd [5]: 3.25 ± 0.2 nM; Kd [6]: 0.13 ± 0.05 nM |
| CN(C)c1ccc(C#Cc2cc3ccncc3[nH]2)cc1 [Compound 42] | 91.5 ± 11 nM |  | 8.4 ± 1 nM | Ki [2, 9]: 28.7 ± 8 nM; Kd [4]: 5.2 ± 3 nM; Kd [5]: 1.4 ± 1 nM; Kd [6]: 0.49 ± 0.2 nM |
| CN(C)c1ccc(C#Cc2cc3cnccc3[nH]2)cc1 [Compound 44] | 21.3 ± 7 nM | 26 ± 16 nM |  | Kd [4]: 3.6 ± 2 nM; Kd [5]: 1 ± 0.5 nM; Kd [6]: 2.4 ± 0.9 nM |
| CN([11CH3])c1ccc(-c2cc(-c3ccnc(Br)c3)[nH]n2)cc1 [[^11C]MODAG-001] |  |  |  | better affinity for α-syn as compared to Aβ and tau fibrils ([7]; in vitro): around 20 times |
| CN(c1ccc(/C=C/c2nc3ccccc3o2)cc1)S(=O)(=O)c1ccccc1[18F] [[^18F]2FBox] |  |  |  | Kd ([7]; in vitro, read-out: Kd for α-syn fibrils): 3.3 nM; Kd ([8]; in vitro, read-out: Kd for Aβ): 145 nM |
| COc1cccc2ccc(/C=N/N=C/c3ccc4cccc(OCC[18F])c4n3)nc12 [[^18F]BQ2] |  |  |  | Ki [7]: ~10 nM; Ki for Aβ ([8]; compared with Ki for α-syn): same Ki for Aβ |
